Results taken from patent US20250019387A1 (Frontier Medicines Corporation, priority 0001, published 2025).

Target: KRAS G12C and cRAF (Ras-binding domain) interaction (Homo sapiens (Human), UniProt P01116, C118S/C51S/C80L/G12C)
Assay: Inhibition of KRAS G12C and cRAF binding (AlphaScreen)
Conditions: GMPPNP-loaded KRAS G12C, 19-20 hours incubation with compound; read-out: IC50 (Inhibition of KRAS G12C and cRAF Binding)
Method in brief: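 Compounds (DMSO) preincubated 19-20 h at room temperature, then RBD with streptavidin donor and glutathione acceptor beads added in 25 mM Hepes pH 7.4, 150 mM NaCl, 5 mM MgCl2, 0.01% Triton X-100, 2% DMSO for 60-90 min. Emission 570 nm (excitation 680 nm); IC50 by 4-parameter fit. Counter-screen used biotin-AviTag-GST instead of RBD.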

Sequence of KRAS G12C and cRAF (Ras-binding domain) interaction (P01116 other isoform, or with tags, fused parts or gaps G12C/C51S/C80L/C118S): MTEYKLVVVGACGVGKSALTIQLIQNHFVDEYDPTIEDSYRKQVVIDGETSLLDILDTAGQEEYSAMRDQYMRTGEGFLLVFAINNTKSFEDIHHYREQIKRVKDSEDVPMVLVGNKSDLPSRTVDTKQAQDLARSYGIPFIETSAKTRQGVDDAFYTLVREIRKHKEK

Compound | IC50 [µM]
CC(C)c1noc(/C=C/C(=O)N2CC[C@@H](N(C)c3nc(OC[C@@]45CCCN4C[C@H](F)C5)nc4c3CCN(c3cccc5cccc(Cl)c35)C4)C2)n1 [Example 136, (E)-1-((R)-3-((7-(8-chloronaphthalen-1-yl)-2-(((2R,7aS)-2-fluorohexahydro-1H-pyrrolizin-7a-yl)methoxy)-5,6,7,8-tetrahydropyrido[3,4-d]pyrimidin-4-yl)(methyl)amino)pyrrolidin-1-yl)-3-(3-isopropyl-1,2,4-oxadiazol-5-yl)prop-2-en-1-one] | 0.01 to 0.1
COC/C=C/C(=O)N1CCC(N(C)c2nc(OC[C@@H]3CCCN3C)nc3c2CCN(c2cccc4cccc(Cl)c24)C3)C1 (stereo partly drawn) [Example 5, (E)-1-(3-((7-(8-chloronaphthalen-1-yl)-2-(((S)-1-methylpyrrolidin-2-yl)methoxy)-5,6,7,8-tetrahydropyrido[3,4-d]pyrimidin-4-yl)(methyl)amino)pyrrolidin-1-yl)-4-methoxybut-2-en-1-one] | > 0.5
CCN1CC[C@@H]1/C=C/C(=O)N1CC[C@@H](N(C)c2nc(OC[C@@]34CCCN3C[C@H](F)C4)nc3c(F)c(-c4cccc5cccc(Cl)c45)ncc23)C1 [Example 223, (E)-1-((R)-3-((7-(8-chloronaphthalen-1-yl)-8-fluoro-2-(((2R,7aS)-2-fluorotetrahydro-1H-pyrrolizin-7a(5H)-yl)methoxy)pyrido[4,3-d]pyrimidin-4-yl)(methyl)amino)pyrrolidin-1-yl)-3-((R)-1-ethylazetidin-2-yl)prop-2-en-1-one] | 0.01 to 0.1
CN(CC1CN(C(=O)/C=C/c2nc(C(C)(C)O)no2)C1)c1nc(OC[C@@]23CCCN2C[C@H](F)C3)nc2c(F)c(-c3cccc4cccc(Cl)c34)ncc12 [Example 105, (E)-1-(3-(((7-(8-chloronaphthalen-1-yl)-8-fluoro-2-(((2R,7aS)-2-fluorotetrahydro-1H-pyrrolizin-7a(5H)-yl)methoxy)pyrido[4,3-d]pyrimidin-4-yl)(methyl)amino)methyl)azetidin-1-yl)-3-(3-(2-hydroxypropan-2-yl)-1,2,4-oxadiazol-5-yl)prop-2-en-1-one] | < 0.01
CN(c1nc(OC[C@@]23CCCN2C[C@H](F)C3)nc2c(F)c(-c3cccc4ccc(F)c(Cl)c34)ncc12)[C@@H]1CCN(C(=O)/C=C/c2nc(C(C)(C)O)no2)C1 [Example 88, (E)-1-((R)-3-((7-(8-chloro-7-fluoronaphthalen-1-yl)-8-fluoro-2-(((2R,7aS)-2-fluorotetrahydro-1H-pyrrolizin-7a(5H)-yl)methoxy)pyrido[4,3-d]pyrimidin-4-yl)(methyl)amino)pyrrolidin-1-yl)-3-(3-(2-hydroxypropan-2-yl)-1,2,4-oxadiazol-5-yl)prop-2-en-1-one] | < 0.01
CN(c1nc(OC[C@@]23CCCN2C[C@H](F)C3)nc2c1CCN(c1cccc3cccc(Cl)c13)C2)[C@@H]1CCN(C(=O)/C=C/c2nc(C(C)(C)C)no2)C1 [Example 148, (E)-3-(3-(tert-butyl)-1,2,4-oxadiazol-5-yl)-1-((R)-3-((7-(8-chloronaphthalen-1-yl)-2-(((2R,7aS)-2-fluorohexahydro-1H-pyrrolizin-7a-yl)methoxy)-5,6,7,8-tetrahydropyrido[3,4-d]pyrimidin-4-yl)(methyl)amino)pyrrolidin-1-yl)prop-2-en-1-one] | 0.1 to 0.5
CN1CCC[C@H]1COc1nc(N(C)[C@@H]2CCN(C#N)C2)c2cnc(-c3cccc4cccc(Cl)c34)c(F)c2n1 [Example 36, (R)-3-((7-(8-chloronaphthalen-1-yl)-8-fluoro-2-(((S)-1-methylpyrrolidin-2-yl)methoxy)pyrido[4,3-d]pyrimidin-4-yl)(methyl)amino)pyrrolidine-1-carbonitrile] | 0.01 to 0.1
CN(c1nc(OC[C@@H]2CCCN2C)nc2c1CCN(c1cccc3cccc(Cl)c13)C2)C1CCN(C#N)C1 (stereo partly drawn) [Example 29, 3-((7-(8-chloronaphthalen-1-yl)-2-(((S)-1-methylpyrrolidin-2-yl)methoxy)-5,6,7,8-tetrahydropyrido[3,4-d]pyrimidin-4-yl)(methyl)amino)pyrrolidine-1-carbonitrile] | 0.1 to 0.5
CN(CC1CN(C(=O)/C=C/c2nc(C3COC3)no2)C1)c1nc(OCC23CCCN2CCC3)nc2c(F)c(-c3cccc4cccc(Cl)c34)ncc12 [Example 153, (E)-1-(3-(((7-(8-chloronaphthalen-1-yl)-8-fluoro-2-((tetrahydro-1H-pyrrolizin-7a(5H)-yl)methoxy)pyrido[4,3-d]pyrimidin-4-yl)(methyl)amino)methyl)azetidin-1-yl)-3-(3-(oxetan-3-yl)-1,2,4-oxadiazol-5-yl)prop-2-en-1-one] | 0.01 to 0.1
CN1CC(C#CC(=O)N2CC[C@@H](N(C)c3nc(OC[C@@]45CCCN4C[C@H](F)C5)nc4c(F)c(-c5cccc6cccc(Cl)c56)ncc34)C2)C1 [Example 67, 1-((R)-3-((7-(8-chloronaphthalen-1-yl)-8-fluoro-2-(((2R,7aS)-2-fluorohexahydro-1H-pyrrolizin-7a-yl)methoxy)pyrido[4,3-d]pyrimidin-4-yl)(methyl)amino)pyrrolidin-1-yl)-3-(1-methylazetidin-3-yl)prop-2-yn-1-one] | 0.01 to 0.1
CN1CCC[C@H]1COc1nc2c(c(N(C)[C@H]3CCN(C(=O)/C=C/S(C)(=O)=O)C3)n1)CCN(c1cccc3cccc(Cl)c13)C2 [Example 15, (E)-1-((S)-3-((7-(8-chloronaphthalen-1-yl)-2-(((S)-1-methylpyrrolidin-2-yl)methoxy)-5,6,7,8-tetrahydropyrido[3,4-d]pyrimidin-4-yl)(methyl)amino)pyrrolidin-1-yl)-3-(methylsulfonyl)prop-2-en-1-one] | < 0.01
C=CC(=O)N1C[C@H](N(C)c2nc(OC[C@@]34CCCN3C[C@H](F)C4)nc3c(F)c(-c4cccc5cccc(Cl)c45)ncc23)C(F)(F)C1 [Example 239, 1-((S)-4-((7-(8-chloronaphthalen-1-yl)-8-fluoro-2-(((2R,7aS)-2-fluorotetrahydro-1H-pyrrolizin-7a(5H)-yl)methoxy)pyrido[4,3-d]pyrimidin-4-yl)(methyl)amino)-3,3-difluoropyrrolidin-1-yl)prop-2-en-1-one] | 0.01 to 0.1
CN(c1nc(OC[C@@]23CCCN2C[C@H](F)C3)nc2c(F)c(-c3cccc4cccc(Cl)c34)ncc12)[C@@H]1CCN(C(=O)C#CC2CCCN2)C1 (stereo partly drawn) [Example 59, 1-((R)-3-((7-(8-chloronaphthalen-1-yl)-8-fluoro-2-(((2R,7aS)-2-fluorotetrahydro-1H-pyrrolizin-7a(5H)-yl)methoxy)pyrido[4,3-d]pyrimidin-4-yl)(methyl)amino)pyrrolidin-1-yl)-3-(pyrrolidin-2-yl)prop-2-yn-1-one] | < 0.01
Cc1nccc(/C=C/C(=O)N2CCC[C@H](N(C)c3nc(OC[C@@]45CCCN4C[C@H](F)C5)nc4c(F)c(-c5cccc6cccc(Cl)c56)ncc34)C2)n1 [Example 260, (E)-1-((S)-3-((7-(8-chloronaphthalen-1-yl)-8-fluoro-2-(((2R,7aS)-2-fluorotetrahydro-1H-pyrrolizin-7a(5H)-yl)methoxy)pyrido[4,3-d]pyrimidin-4-yl)(methyl)amino)piperidin-1-yl)-3-(2-methylpyrimidin-4-yl)prop-2-en-1-one] | 0.1 to 0.5
C=CC(=O)N1CC[C@@H](N(C)c2nc(OCC34CCCN3CCC4)nc3c(F)c(-c4cccc5c(F)cc(F)cc45)ncc23)C1 [Example 269, (R)-1-(3-((7-(5,7-difluoronaphthalen-1-yl)-8-fluoro-2-((hexahydro-1H-pyrrolizin-7a-yl)methoxy)pyrido[4,3-d]pyrimidin-4-yl)(methyl)amino)pyrrolidin-1-yl)prop-2-en-1-one] | 0.1 to 0.5
C#Cc1c(F)ccc2cccc(-c3ncc4c(N(C)[C@@H]5CCN(C(=O)/C=C/c6cc(C)nc(C)n6)C5)nc(OC[C@@]56CCCN5C[C@H](F)C6)nc4c3F)c12 [Example 207, (E)-3-(2,6-dimethylpyrimidin-4-yl)-1-((R)-3-((7-(8-ethynyl-7-fluoronaphthalen-1-yl)-8-fluoro-2-(((2R,7aS)-2-fluorotetrahydro-1H-pyrrolizin-7a(5H)-yl)methoxy)pyrido[4,3-d]pyrimidin-4-yl)(methyl)amino)pyrrolidin-1-yl)prop-2-en-1-one] | 0.01 to 0.1

Same assay, conditions: additional exemplary compounds; KRAS G12C and cRAF binding; read-out: RAF1 RBD IC50

Compound | IC50 [µM]
C=CC(=O)N1CCC[C@@H](N(C)c2nc(OCC34CCCN3CCC4)nc3c(F)c(-c4cccc5cccc(Cl)c45)ncc23)C1 | > 0.5
C=CC(=O)N1CC[C@@H](N(C)c2nc(OCC34CCCN3CCC4)nc3c(F)c(-c4cccc5cccc(Cl)c45)ncc23)C1 | 0.1 to 0.5
C=CC(=O)N1CC[C@H]2[C@H]1CCN2c1nc(OC[C@@]23CCCN2C[C@H](F)C3)nc2c1CCN(c1cccc3cccc(Cl)c13)C2 | > 0.5
CN(C)C(=O)/C=C/C(=O)N1CC(CN(C)c2nc(OCC34CCCN3CCC4)nc3c(F)c(-c4cccc5cccc(Cl)c45)ncc23)C1 | > 0.5
Cc1nccc(/C=C/C(=O)N2CCC(N(C)c3nc(OC[C@@]45CCCN4C[C@H](F)C5)nc4c(F)c(-c5cccc6cccc(Cl)c56)ncc34)CC2)n1 | > 0.5
C=CC(=O)CCN(C)c1nc(OC[C@@H]2CCCN2C)nc2c1CCN(c1cccc3cccc(Cl)c13)C2 | 0.01 to 0.1
O=C(/C=C/CN1CCOCC1)N1CC2(C1)CN(c1nc(OC[C@@]34CCCN3C[C@H](F)C4)nc3c(F)c(-c4cccc5cccc(Cl)c45)ncc13)C2 | > 0.5
CN1CCC[C@H]1COc1nc(N(C)[C@@H]2CCN(C(=O)/C=C/CN3CC(F)(F)C3)C2)c2cnc(-c3cccc4cccc(Cl)c34)c(F)c2n1 | 0.1 to 0.5
COCCN(C)C/C=C/S(=O)(=O)CCN(C)c1nc(OCC23CCCN2CCC3)nc2c(F)c(-c3cccc4cccc(Cl)c34)ncc12 | 0.01 to 0.1
C=CC(=O)N1CC[C@@H](N(C)c2nc(OCC34CCCN3CCC4)nc3c(F)c(-c4cccc5ccc(F)c(Cl)c45)ncc23)C1 | 0.01 to 0.1
